In patent US10857105B2, “Compounds and compositions for intracellular delivery of therapeutic agents” (ModernaTX, Inc., priority 2017, dated 2020):

Assays:
[1] = system: IL-6, IP-10; test: Cytokine induction (IL-6, IP-10) in mice 6 hours after intravenous administration; type: in vivo; design: unit not given here; details: intravenous 0.5 mpk
Procedure, shortened: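 IL-6 and IP-10 concentrations determined 6 hours after a single intravenous 0.5 mpk dose of lipid nanoparticle formulation in mice, with MC3 and PBS as comparators.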

[2] = system: hEPO mRNA; test: hEPO expression after intravenous administration to rats; type: in vivo, rat; details: for Lipid/MC3 hEPO expression: 6 hours after administration
[3] = Encapsulation efficiency of RNA in nanoparticle compositions (RIBOGREEN assay); type: physicochemical; details: for % EE: compositions for subcutaneous administration
Procedure, shortened: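 Lipid nanoparticles (ionisable lipid:DSPC:cholesterol:PEG-DMG 50:10:38.5:1.5 mol %) carrying N1-methylpseudouridine luciferase or hEPO mRNA diluted to about 5 μg/mL in TE, pH 7.5, with or without 2% Triton X-100, 15 min at 37° C. RiboGreen fluorescence (ex ~480, em ~520 nm) blank-subtracted; free RNA = intact/disrupted signal.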

[4] = Particle size and polydispersity index of nanoparticle compositions (Zetasizer Nano ZS); type: physicochemical
Procedure, shortened: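 Formulations of ionizable lipid, DSPC, cholesterol and PEG-DMG (50:10:38.5:1.5 mol %) carrying Luc or hEPO mRNA with all uridines as N1-methyl pseudouridine. Dynamic light scattering in 1×PBS gave particle size and polydispersity; zeta potential read in 15 mM PBS.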

[5] = Table 1A, lipid:DSPC:cholesterol:PEG-DMG 50:10:38.5:1.5 mol %
[6] = Table 1B, formulated with hEPO mRNA
[7] = lipid:DSPC:Chol:PEG-DMG (50:10:38.5:1.5), hEPO mRNA
[8] = nanoparticle composition with hEPO mRNA (Table 30)
[9] = Table 1C, compositions for subcutaneous administration
[10] = Table 1D, compositions for subcutaneous administration, # formulated with hEPO mRNA
[11] = Table 1E, compositions for subcutaneous administration

Question: For `CCCCCC=CCC=CCCCCCCCCC(CCCCCCCCC=CCC=CCCCCC)OC(=O)CCCN(C)C` (stereo not shown) [MC3, heptatriaconta-6,9,28,31-tetraen-19-yl 4-(dimethylamino)butanoate, reference compound], which “Cytokine induction, IL-6” value [1] is on record?
Answer: 124.42

Question: What about the “Cytokine induction, IP-10” value [1] of the same molecule?
Answer: 504.90

Question: And the “Lipid/MC3 hEPO expression” value ([2]; 0.2 mpk dose to rat)?
Answer: 1

Question: What about the “Lipid/MC3 hEPO expression” value ([2]; 2 mpk dose to rat) of the same molecule?
Answer: 1

Question: What about the “[hEPO]” value ([2]; Table 19B) of the same molecule?
Answer: 14800 pg/mL

Question: And the “hEPO AUC” value ([2]; Table 19B)?
Answer: 3.46e+07 pg·h/mL

Question: And the “hEPO expression, 0.25 h” value ([2]; rat, intravenous 0.2 mpk, 0.25 h)?
Answer: 0 pg/mL

Question: And the “hEPO expression, 0.5 h” value ([2]; rat, intravenous 0.2 mpk, 0.5 h)?
Answer: 42457 pg/mL

Question: What about the “hEPO expression, 1 h” value ([2]; rat, intravenous 0.2 mpk, 1 h) of the same molecule?
Answer: 93720 pg/mL

Question: And the “hEPO expression, 2 h” value ([2]; rat, intravenous 0.2 mpk, 2 h)?
Answer: 524093 pg/mL

Question: And the “hEPO expression, 4 h” value ([2]; rat, intravenous 0.2 mpk, 4 h)?
Answer: 601307 pg/mL

Question: And the hEPO expression ([2]; rat, intravenous 0.2 mpk, 6 hours)?
Answer: 7.68e+06 pg/mL

Question: What about the “hEPO expression, 8 h” value ([2]; rat, intravenous 0.2 mpk, 8 h) of the same molecule?
Answer: 1536833 pg/mL

Question: What about the “hEPO expression, 24 h” value ([2]; rat, intravenous 0.2 mpk, 24 h) of the same molecule?
Answer: 703619 pg/mL

Question: And the “hEPO expression, 48 h” value ([2]; rat, intravenous 0.2 mpk, 48 h)?
Answer: 64687 pg/mL

Question: What about the hEPO expression ([2]; rat, intravenous 2 mpk, 6 hours) of the same molecule?
Answer: 9.29e+06 pg/mL

Question: And the hEPO expression ([2]; rat, intravenous, 6 h, 2 mpk)?
Answer: 1.33e+07 pg/mL

Question: What about the “Lipid/MC3 hEPO conc. ratio, 0.2 mpk” value ([2]; rats, intravenous 0.2 mpk, 6 hours) of the same molecule?
Answer: 1

Question: What about the “Lipid/MC3 hEPO conc. ratio, 2 mpk” value ([2]; rats, intravenous 2 mpk, 6 hours) of the same molecule?
Answer: 1

Question: And the EE [3, 5]?
Answer: 97.3%

Question: What about the EE [3, 6] of the same molecule?
Answer: 99.01%

Question: And the “% EE” value ([3]; Table 1C)?
Answer: 98.2%

Question: What about the “% EE” value ([3]; Table 1D, # formulated with hEPO mRNA) of the same molecule?
Answer: 98.7%

Question: What about the “% EE” value ([3]; Table 1E) of the same molecule?
Answer: 98%

Question: What about the EE [3, 7] of the same molecule?
Answer: 97.22%

Question: And the EE [3, 8]?
Answer: 91.66%

Question: What about the PDI [4, 5] of the same molecule?
Answer: 0.11

Question: What about the Size [4, 5] of the same molecule?
Answer: 79.7 nm

Question: What about the PDI [4, 6] of the same molecule?
Answer: 0.12

Question: And the Size [4, 6]?
Answer: 57.7 nm

Question: What about the PDI [4, 9] of the same molecule?
Answer: 0.09

Question: And the Size [4, 9]?
Answer: 56.9 nm

Question: What about the PDI [4, 10] of the same molecule?
Answer: 0.15

Question: What about the Size [4, 10] of the same molecule?
Answer: 69.1 nm

Question: What about the PDI [4, 11] of the same molecule?
Answer: 0.10

Question: And the Size [4, 11]?
Answer: 62.4 nm

Question: What about the PDI [4, 7] of the same molecule?
Answer: 0.114

Question: And the Size [4, 7]?
Answer: 73.7 nm

Question: And the PDI [4, 8]?
Answer: 0.220

Question: And the Size [4, 8]?
Answer: 106.0 nm
